Results on three compounds are retold here after patent publication US5602100A, “Dermorphin analogs having pharmacological activity” (priority 1988, dated 1997).

One data set concerns the target T1, δ-opioid receptor (Rattus norvegicus, UniProt P33533).
T1 construct: displacement of the radioligands from the rat brain membrane preparations; from tissue; host or cells: rat brain membrane preparations
The experiment in a line: biochemical. It counts as binding. The note with it: read-out: [3H]HSLET Ki^δ.

For data set [1], the system named is guinea pig ileum (GPI). It is filed as cell-based.
Another data set relates to mouse vas deferens (MVD). It counts as cell-based.
In data set [2] the test system is guinea pig ileum (GPI). The experiment in a line: Ke values for naloxone as antagonist in the GPI assay. It is filed as cell-based. The note with it: mean of three determinations ± SEM. As for the experimental part: κ-receptor interactions were determined by measuring Ke values for naloxone as an antagonist in the GPI assay. High Ke values (in the range of 20-30 nM) are associated with κ-receptor interactions. Low Ke values (in the range of 1-2 nM) are associated with μ-receptor interactions. Ke values for naloxone were determined from the ratio of IC50 values obtained in the presence of and in the absence of a fixed naloxone concentration. The IC50 values of the tested compounds were normalized according to published procedure (F. M. Leslie, "Methods Used for the Study of Opioid Receptors", Pharmacological Reviews, 39 (1987)).

The test system of data set [3] is PBQ-induced writhing. The data set can be described thus: Mouse writhing test (PBQ). It counts as in vivo. The note with it: for PBQ (20 min.) ED50: dose reducing the number of writhes by 50%. The protocol:
The mouse writhing test detects both peripherally and centrally mediated analgesic effects. The test procedure is described in Siegmund et al., Proc. Soc. Exp. Biol. Med., 95, p. 729 (1957). In this test, a control group of albino mice was injected intraperitoneally with 0.3 ml/20 g body weight of a 0.02% solution of 2-phenyl-1,4-benzoquinone (PBQ). The writhing and contortional movements of the mice over the following 15 minutes were recorded. A second group of mice was given a dose of a synthetic dermorphin analog according to this invention, then allowed to wait a period of time before being administered the PBQ injection. The average number of writhes was then recorded and compared to the control group. The results of this test are expressed as the dosage of peptide that reduces the number of writhes by 50% at a given time interval (referred to as ED50).

For data set [4], the system named is PBQ-induced writhing. The data set can be described thus: Mouse writhing test with prior N-methyllevallorphan (NML). It counts as in vivo. The note with it: 10 mg/kg N-methyllevallorphan before peptide. As for the experimental part: A variation of the mouse writhing experiment was also conducted to determine peripheral versus central binding preferences of certain peptides of this invention. In this experiment, 10 mg/kg of N-methyllevallorphan (NML), a known peripheral opioid antagonist, was administered to the mice before injection of the synthetic dermorphin peptide.
(Writhing tests count abdominal constrictions after an irritant is injected.)

Data set [5] in a line: Respiration rate (respiratory depression). It counts as in vivo, rat. The note with it: dose 30 mg/kg; control 142 ± 5. As for the experimental part:
In addition to the mouse writhing data, respiratory depression was measured in certain treated mice. Respiratory depression is a commonly observed side effect characteristic of centrally-acting opiates. These reulsts are expressed in Table 5.

For another data set, the system named is hot plate stimulus. The experiment in a line: Mouse hot plate test. It counts as in vivo. The note with it: for Hot plate ED50: mouse, in vivo; for ratio of ED50 for PBQ assay over ED50 for the hot plate assay: peripheral/central activity ratio. The protocol:
The mouse hot plate test is an assay which only detects centrally-mediated analgesic effects. This test was carried out using the protocol described in G. Woolfe and A. MacDonald, J. Pharmacol. Exp. Ther., 80, p. 300 ([…]).
Since most of the peptides of the invention were not potent centrally, it was impossible to determine an ED50 value. […] A result is considered insignificant if 30% of mice or lower have responded.
(In hot-plate and tail-flick tests a longer latency is read as antinociception.)

In a further data set the target is T2, μ-opioid receptor (Rattus norvegicus, UniProt P33535).
T2 construct: displacement of the radioligands from the rat brain membrane preparations; from tissue; host or cells: rat brain membrane preparations
The data set can be described thus: biochemical. It counts as binding.

Molecules are shown by their SMILES. Non-standard residues stand in square brackets, D forms with d. Residues, ends and D or L forms follow the SMILES beside them. dNva = CCC[C@@H](N)C(=O)O; Orn = NCCC[C@H](N)C(=O)O

T2 sequence (P33535 whole entry): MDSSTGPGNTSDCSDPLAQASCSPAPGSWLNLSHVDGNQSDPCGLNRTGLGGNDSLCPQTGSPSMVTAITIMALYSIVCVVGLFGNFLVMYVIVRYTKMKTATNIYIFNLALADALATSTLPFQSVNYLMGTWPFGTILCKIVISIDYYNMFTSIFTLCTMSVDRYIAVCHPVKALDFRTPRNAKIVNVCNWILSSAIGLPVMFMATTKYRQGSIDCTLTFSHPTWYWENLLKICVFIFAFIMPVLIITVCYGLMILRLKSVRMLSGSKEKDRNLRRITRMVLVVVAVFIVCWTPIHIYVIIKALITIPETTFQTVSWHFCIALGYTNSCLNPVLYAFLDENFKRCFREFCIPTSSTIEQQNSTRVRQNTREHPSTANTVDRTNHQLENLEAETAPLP
T1 sequence (P33533 whole entry): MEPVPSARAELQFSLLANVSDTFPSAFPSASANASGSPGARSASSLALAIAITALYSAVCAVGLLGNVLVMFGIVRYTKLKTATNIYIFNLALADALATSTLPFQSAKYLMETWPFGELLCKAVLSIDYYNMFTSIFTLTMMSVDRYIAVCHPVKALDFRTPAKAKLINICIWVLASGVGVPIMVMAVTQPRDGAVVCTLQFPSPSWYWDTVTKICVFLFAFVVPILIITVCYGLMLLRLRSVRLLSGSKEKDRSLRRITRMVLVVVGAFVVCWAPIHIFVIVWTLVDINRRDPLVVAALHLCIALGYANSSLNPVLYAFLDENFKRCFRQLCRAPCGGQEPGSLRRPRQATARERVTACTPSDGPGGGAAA

As for `NCCCC[C@H](NC(=O)[C@H](Cc1ccccc1)NC(=O)[C@@H](CCCN=C(N)N)NC(=O)[C@@H](N)Cc1ccc(O)cc1)C(N)=O` [BCH-150, H-Tyr-D-Arg-Phe-Lys-NH2], at δ-opioid receptor, the Ki (in general, a dissociation constant, usually derived from enzyme kinetics or from competition with a known ligand) turned out to be 19200 nM. The IC50 – broadly, the concentration at which inhibition is half-maximal – with guinea pig ileum (GPI) [1] came to 338 ± 41 nM; in the data set on mouse vas deferens (MVD), 781 ± 146 nM. Also, the “Ke (naloxone)” value in the data set on guinea pig ileum (GPI) [2] is recorded as 1.17 ± 0.08 nm. Further, the “PBQ (20 min.) ED50” value in the data set on PBQ-induced writhing [3] stood at 0.65 mg/kg. Further, in the data set on PBQ-induced writhing [4], the “Antagonism of antinociceptive effect by prior NML” value (“Antagonism” below) is recorded as “partially or totally antagonized”. For the same compound, the Breaths per min. in data set [5] is given as 121 ± 6 breaths per min. Besides, in the data set on hot plate stimulus, the “Hot plate ED50” value turned out to be 19 mg/kg.
Turning to `CCC[C@@H](NC(=O)[C@@H](N)Cc1ccc(O)cc1)C(=O)N[C@@H](Cc1ccccc1)C(=O)N[C@@H](CCCN)C(N)=O` [BCH-752, H-Tyr-D-Nva-Phe-Orn-NH2] (H-Y[dNva]F[Orn]-NH2), on μ-opioid receptor, the “Ki^δ /Ki^μ” value is 1880. The Ki at μ-opioid receptor (read-out: [3H]DAGO Ki^μ) stood at 1.17 nM. For the same compound, the Ki at δ-opioid receptor amounted to 2200 nM. Also, in the data set on guinea pig ileum (GPI) [1], the GPI relative potency worked out at 2.36 ± 0.33, 104 ± 15 nM corresponded to half-maximal inhibition (IC50) and the “MVD/GPI IC50 ratio” value is listed as 2.61. In the data set with mouse vas deferens (MVD), this compound had an IC50 of 271 ± 63 nM and an MVD relative potency of 0.0420 ± 0.0098. In the data set with guinea pig ileum (GPI) [2], the “Ke (naloxone)” value worked out at 1.55 ± 0.23 nm. In the data set with PBQ-induced writhing [3], the “PBQ (20 min.) ED50” value is 0.2 mg/kg. Besides, in the data set on PBQ-induced writhing [4], the “Antagonism” value is “partially or totally antagonized”. The Breaths per min. in [5] stood at 122 ± 14 breaths per min. Moreover, in the data set with hot plate stimulus, the “Hot plate ED50” value stood at 5.2 mg/kg and the “ratio of ED50 for PBQ assay over ED50 for the hot plate assay” value is 26.
On to `CN1CC[C@]23c4c5ccc(O)c4O[C@H]2[C@@H](O)C=C[C@H]3[C@H]1C5` [morphine, reference compound], for which the 50% effective dose (ED50) – broadly, the dose at which the effect has come halfway, by size or by number of responders – stood at 0.6 mg/kg in the data set with PBQ-induced writhing [3] (Mus musculus, 20 min, read-out: PBQ (20 min.) ED50, dose reducing the number of writhes by 50%) and 2.7 mg/kg in the data set on hot plate stimulus (Mus musculus). In the data set with PBQ-induced writhing [4], the “Antagonism” value is “not antagonized”. This compound yielded a Breaths per min. in data set [5] of 104 ± 6 breaths per min. Moreover, the “ratio of ED50 for PBQ assay over ED50 for the hot plate assay” value in the data set with hot plate stimulus is given as 4.5.
